Reference: patent US5753661A, “Fused benzo compounds containing a nitrogen heterocycle for the treatment of central nervous system disorders” (priority 1992, dated 1998)

These compounds were tested against T1, 5-HT1A receptor (Rattus norvegicus, UniProt P19327) (assay: Inhibition of 3H-8-OH-DPAT binding to serotonin 5-HT1A receptors in rat brain in vitro). Conditions: not given.
T1 sequence (P19327 1-422): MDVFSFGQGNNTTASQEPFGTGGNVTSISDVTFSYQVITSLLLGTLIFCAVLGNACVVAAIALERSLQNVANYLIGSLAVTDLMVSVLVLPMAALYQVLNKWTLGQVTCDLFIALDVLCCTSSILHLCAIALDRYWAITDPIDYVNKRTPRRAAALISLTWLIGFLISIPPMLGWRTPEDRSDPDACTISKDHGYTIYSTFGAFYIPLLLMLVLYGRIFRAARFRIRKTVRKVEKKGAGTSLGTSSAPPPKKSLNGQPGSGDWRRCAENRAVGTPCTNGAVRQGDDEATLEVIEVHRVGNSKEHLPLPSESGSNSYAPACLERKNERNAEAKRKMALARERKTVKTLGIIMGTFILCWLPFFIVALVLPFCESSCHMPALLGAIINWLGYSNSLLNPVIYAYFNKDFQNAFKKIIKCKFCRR
Parameters: 5-HT1A receptors in membranes from rat brain minus cerebellum; from tissue; host or cells: rat brain minus cerebellum, membranes
Protocol: Inhibition of ^3 H-8-OH-DPAT Binding to Serotonin 5-HT1A Receptors in Rat Brain in vitro.
By this method the inhibition by drugs of the binding of the 5-HT1A agonist 3H-8-OH-DPAT (1 nM) to 5-HT1A receptors in membranes from rat brain minus cerebellum is determined in vitro . Accordingly, this is a test for affinity for the 5-HT1A receptor. The assay was performed as described by Hyttel et al., Drug Dev. Res. 1988, 15, 389-404.

Compound | IC50 [nM]
CC1(C)Cc2cccc(C3=CCN(CCCCN4CCN(C5CCCCC5)C4=O)CC3)c2O1 [Compound 10a, 1-Cyclohexyl-3-[4-[4-(2,3-dihydro-2,2-dimethylbenzofuran-7-yl)-1,2,3,6-tetrahydropyrid-1-yl]-1-butyl]-2-imidazolidinone] | 1.2

Same assay, conditions: 3H-8-OH-DPAT 1 nM; membranes from rat brain minus cerebellum; read-out: IC50, 3H 8-OH-DPAT binding

IC50 [nM] | Compound
53 | CCOC(=O)c1cc2cccc(N3CCN(CCN4CCN(c5ccccc5)C4=O)CC3)c2[nH]1 [Compound 2j, Ethyl 7-[4-[2-(3-phenyl-2-imidazoidin-2-on-1-yl)ethyl]-1-piperazinyl]-2-indolyl carboxylate]
36 | O=c1n(CCN2CCN(c3cccc4c3OCCO4)CC2)c2ccccc2n1-c1ccc(F)cc1 [Compound 12a, 1-[2-[4-(1,4-Benzodioxan-5-yl)-1-piperazinyl]ethyl]-3-(4-fluorophenyl)-2(3H)-benzimidazolone]
38 | CC1(C)COc2c(N3CCN(CCN4CCN(C5CCCC5)C4=O)CC3)cccc21 [Compound 14b]
51000 | O=C1N(CCN2CCN(c3cccc4c3ccn4-c3ccc(F)cc3)CC2)CCN1C1CCCC1 [Compound 7a, 1-Cyclopentyl-3-[2-[4-[1-(4-fluorophenyl)-4-indolyl]-1-piperazinyl]ethyl]-2-imidazolidinone]
7.5 | CC1(C)COc2c(N3CCN(CCCCCCN4CCN(C5CCCC5)C4=O)CC3)cccc21 [Compound 14c]
300 | CC1(C)Cc2c(N3CCN(CCCN4CCN(C5CCCCC5)C4=O)CC3)ccc(Cl)c2O1 [Compound 2qq]
230 | O=C1N(CCN2CCN(c3cccc4c3NCC4)CC2)CCN1C1CCCC1 [Compound 9a, 1-Cyclopentyl-3-[2-[4-(7-indolinyl)-1-piperazinyl]ethyl]-2-imidazolidinone]
110 | O=C1N(CCN2CCN(c3cccc4cc[nH]c34)CC2)CCN1C1CCCC1 [Compound 2u, 1-Cyclopentyl-3-[2-[4-(7-indolyl)-1-piperazinyl]ethyl]-2-imidazolidinone]
40 | CCN1CCN(CCCN2CCN(c3cccc4c3OCCO4)CC2)C1=O [Compound 4b, 1-[3-[4-(1,4-Benzodioxan-5-yl)-1-piperazinyl]-1-propyl]-3-ethyl-2-imidazolidinone]
23 | O=C1N(CCN2CCN(c3cccc4occc34)CC2)CCN1c1ccccc1 [Compound 2r, 1-[2-(4-Benzofuran-4-yl-1-piperazinyl)ethyl]-3-phenyl-2-imidazolidinone]
10 | CC1(C)Cc2cc(F)cc(N3CCN(CCCCN4CCN(c5ccc(F)cc5)C4=O)CC3)c2O1 [Compound 2ll, 1-[4-[4-(2,3-Dihydro-2,2-dimethyl-5-fluorobenzofuran-7-yl)-1-piperazinyl]-1-butyl]-3-(4-fluorophenyl)-2-imidazolidinone]
28 | O=C1N(CCN2CCN(c3cccc4nsnc34)CC2)CCN1c1ccccc1 [Compound 2h, 4-[4-[2-(3-Phenylimidazolidin-2-on-1-yl)ethyl]-1-piperazinyl]-2,1,3-benzothiadiazole]
15 | O=C1N(CCN2CCN(c3cccc4ccccc34)CC2)CCN1c1ccccc1 [Compound 2k, 1-[2-[4-(1-Naphtyl)-1-piperazinyl]ethyl]-3-phenyl-2-imidazolidinone]
75 | O=C1N(CCN2CCN(c3cccc4cnsc34)CC2)CCN1c1ccccc1 [Compound 2x, 1-[2-[4-(1,2-Benzisothiazol-7-yl)-1-piperazinyl]ethyl]-3-phenyl-2-imidazolidinone]
190 | CS(=O)(=O)CCCN1CCN(c2cccc3c2OCC3)CC1 [Compound 1d, 1-(2,3-Dihydrobenzofuran-7-yl)-4-(3-methylsulfonyl-1-propyl)piperazine]
130 | O=C1N(CCCCN2CCN(c3cc(Cl)cc4cc(-c5ccccc5)oc34)CC2)CCN1C1CCCCC1 [Compound 2hh, 1-[4-[4-(5-Chloro-2-phenylbenzofuran-7-yl)-1-piperazinyl]-1-butyl]-3-cyclohexyl-2-imidazolidinone]
5.7 | CC1(C)Cc2cccc(N3CCN(CCCN4CCN(C5CCCCC5)C4=O)CC3)c2O1 [Compound 2kk, 1-Cyclohexyl-3-[3-[4-(2,3-dihydro-2,2-dimethylbenzofuran-7-yl)-1-piperazinyl]-1-propyl]-2-imidazolidinone]
9.7 | O=C1N(CCN2CCN(c3cccc4cc(-c5ccccc5)oc34)CC2)CCN1C1CCCC1 [Compound 14a, 1-Cyclopentyl-3-[2-[4-(2-phenylbenzofuran-7-yl)-1-piperazinyl]ethyl]-2-imidazolidinone]
220 | O=S(=O)(CCN1CCN(c2cccc3c2OCC3)CC1)C1CCCCC1 [Compound 6a, 1-(2-Cyclohexylsulfonyl-1-ethyl)-4-(2,3-dihydrobenzofuran-7-yl)piperazine]
1.7 | CC1(C)Cc2cc(F)cc(N3CCN(CCCCN4CCN(C5CCCCC5)C4=O)CC3)c2O1 [Compound 2mm]
34 | O=C1N(CCN2CCN(c3cccc4[nH]ccc34)CC2)CCN1c1ccccc1 [Compound 2z, 1-[2-[4-(4-Indolyl)-1-piperazinyl]ethyl]-3-phenyl-2-imidazolidinone]
18 | O=C1N(CCCN2CCN(c3cccc4c3OCCO4)CC2)CCN1Cc1ccccc1 [Compound 4a, 1-[3-[4-(1,4-Benzodioxan-5-yl)-1-piperazinyl]-1-propyl]-3-benzyl-2-imidazolidinone]
300 | O=C1N(CCN2CCN(c3cc(Cl)cc4cc(-c5ccccc5)oc34)CC2)CCN1C1CCCC1 [Compound 2ii, 1-[2-[4-(5-Chloro-2-phenylbenzofuran-7-yl)-1-piperazinyl]ethyl]-3-cyclopentyl-2-imidazolidinone]
3.5 | CC1(C)Cc2cccc(C3CCN(CCCCN4CCN(C5CCCCC5)C4=O)CC3)c2O1 [Compound 11a, 1-Cyclohexyl-3-[4-[4-(2,3-dihydro-2,2-dimethylbenzofuran-7-yl)-1-piperidinyl]-1-butyl]-2-imidazolidinone]
13 | O=C1N(CCN2CCN(c3cccc4c3OCCO4)CC2)CCN1C12CC3CC(CC(C3)C1)C2 [Compound 2q, 1-Adamantyl-3-[2-[4-(1,4-benzodioxan-5-yl)-1-piperazinyl]ethyl]-2-imidazolidinone]
30 | O=C1N(CCN2CCN(c3cccc4c3OCC4)CC2)CCN1c1ccc(F)cc1 [Compound 2i, 1-[2-[4-(2,3-Dihydrobenzofuran-7-yl)-1-piperazinyl]ethyl]-3-(4-fluorophenyl)-2-imidazolidinone]
71 | O=C1N(CCN2CCN(c3cccc4cc[nH]c34)CC2)CCN1c1ccccc1 [Compound 2v, 1-[2-[4-(7-Indolyl)-1-piperazinyl]ethyl]-3-phenyl-2-imidazolidinone]
6.6 | CC1(C)Cc2cccc(N3CCN(CCCN4CCN(c5ccccc5)C4=O)CC3)c2O1 [Compound 2ff, 1-[3-[4-(2,3-Dihydro-2,2-dimethylbenzofuran-7-yl)-1-piperazinyl]-1-propyl]-3-phenyl-2-imidazolidinone]
0.5 | CC1(C)Cc2cccc(N3CCN(CCCCN4CCN(c5ccc(F)cc5)C4=O)CC3)c2O1 [Compound 2dd, 1-[4-[4-(2,3-Dihydro-2,2-dimethylbenzofuran-7-yl)-1-piperazinyl]-1-butyl]-3-(4-fluorophenyl)-2-imidazolidinone]
43 | CC(C)(C)N1CCN(CCN2CCN(c3cccc4c3OCCO4)CC2)C1=O [Compound 2ee]
